Values quoted from earlier work, collected in patent publication US20050113433A1, “Compositions of a phenyl acetic acid cyclooxygenase-2 selective inhibitor and a cholinergic agent for the treatment of reduced blood flow or trauma to the central nervous system” (Pharmacia Corporation, priority 2003, published 2005).

Conditions: administered to subjects following stroke

## C[N+](C)(C)CCOP(=O)(O)OP(=O)(O)OC[C@H]1O[C@@H](n2ccc(N)nc2=O)[C@H](O)[C@@H]1O [citicoline]
  behavioral parameters: improvement in behavioral parameters
  infarction volume: decrease in infarction volume
